Measurements taken from BigSolDB 2.1.

O=C(Nc1ccccc1)c1ccccc1O
solubility (mole fraction)
Conditions	283.15 K	288.15 K	293.15 K	298.15 K	303.15 K	308.15 K	313.15 K	318.15 K	323.15 K
in acetonitrile	0.0129	0.0153	0.0181	0.0217	0.0258	0.0307	0.0359	0.0423	0.0485
in ethanol	0.0185	0.0207	0.0235	0.0273	0.0322	0.0366	0.0425	0.0487	0.0572
in ethyl acetate	0.0344	0.039	0.0432	0.0486	0.0554	0.0635	0.0709	0.0808	0.0892
in ethyl formate	0.0195	0.0219	0.0248	0.0293	0.0334	0.041	0.0488	0.0585	0.0681
in isopropanol	0.0169	0.0199	0.0225	0.0265	0.0315	0.036	0.041	0.0473	0.053
in isopropyl acetate	0.0281	0.031	0.0352	0.0389	0.0439	0.0502	0.0567	0.0638	0.0709
in methyl acetate	0.0366	0.0408	0.0443	0.05	0.0568	0.0658	0.0766	0.0879	0.101
in n-butanol	0.013	0.0155	0.0178	0.021	0.0247	0.0292	0.0346	0.0403	0.0467
in n-butyl acetate	0.028	0.0311	0.0349	0.0388	0.0435	0.049	0.0545	0.061	0.0686
in n-pentanol	0.014	0.0157	0.0181	0.0206	0.0238	0.0281	0.0338	0.0396	0.0459
in n-propanol	0.0134	0.0168	0.0199	0.0229	0.0266	0.0314	0.0363	0.0418	0.0479
in n-propyl acetate	0.0303	0.0347	0.0378	0.0435	0.0483	0.0542	0.0616	0.0703	0.0796
